Laboratory results taken from patent US20240390301A1, “COMBINATIONS OF PERIPHERAL 5-HT2A RECEPTOR ANTAGONISTS AND CENTRAL 5-HT2A RECEPTOR AGONISTS” (priority 2021, published 2024).
Read-outs that look alike come from different tables or passages of the source.

Legend:
5-HT2A receptor = molecular target: T1, 5-HT2A receptor (Homo sapiens, UniProt P28223); test: 5-HT2A radioligand binding with [3H]ketanserin
T1 construct: WuXi AppTec (Hong Kong) Limited (contract laboratory that ran the assay)
Description: The binding affinities of key peripheral 5-HT2A receptor antagonists, as well as reference 5-HT2A agonists, at the ketanserin binding site of the 5-HT2A receptor and the mesulergine binding site of the 5-HT2C receptor were determined in radioligand binding experiments.
Method. Affinity of the test compounds for the 5-HT2A and 5-HT2C receptors was determined in radioligand binding experiments with [^3H] ketanserin and [^3H] mesulergine, respectively, by WuXi AppTec (Hong Kong) Limited, using methods adapted from the literature and under conditions described in Table 1.

5-HT2C receptor = molecular target: T2, 5-HT2C receptor (Homo sapiens, UniProt P28335); test: biochemical; type: binding
T2 construct: WuXi AppTec (Hong Kong) Limited (contract laboratory that ran the assay)
T2 sequence (P28335 33-458): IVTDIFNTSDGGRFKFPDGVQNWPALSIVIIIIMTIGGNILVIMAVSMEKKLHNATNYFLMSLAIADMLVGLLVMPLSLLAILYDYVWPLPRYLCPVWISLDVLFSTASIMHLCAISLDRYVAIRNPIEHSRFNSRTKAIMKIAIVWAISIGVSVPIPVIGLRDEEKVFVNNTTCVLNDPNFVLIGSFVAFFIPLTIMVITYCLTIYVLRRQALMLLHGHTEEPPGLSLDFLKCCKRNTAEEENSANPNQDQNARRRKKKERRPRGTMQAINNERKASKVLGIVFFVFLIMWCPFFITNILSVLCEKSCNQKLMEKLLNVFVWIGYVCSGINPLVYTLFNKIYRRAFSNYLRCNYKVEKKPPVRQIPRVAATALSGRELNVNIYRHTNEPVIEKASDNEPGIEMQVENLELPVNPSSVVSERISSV

in vitro [1] = test: in vitro
Description: Method 1. Aliquots of 50 μL loading matrix containing test compound (2 μM final incubation concentration) or control compound in triplicate were transferred to a Sample Collection Plate. The samples were matched with opposite blank buffer to obtain a final volume of 100 μL, with a volume ratio of matrix: Dialysis Buffer of 1:1 (v:v) in each well. Stop solution (200 ng/ml tolbutamide and 200 ng/mL labetalol in ACN) was added to these TO samples of test compound and control compound. The plate was sealed and shaken at 800 rpm for 10 min. An aliquot of 100 μL of the loading matrix containing test compound or control compound was transferred to the donor side of each dialysis well in triplicate and 100 μL of the Dialysis Buffer was loaded to the receiver side of the well. Then the plate was rotated at approximately 100 rpm in a humidified incubator with 5% CO2 at 37±1° C. for 4 hours. At the end of the dialysis, aliquots of 50 μL samples from the buffer side and matrix side of the dialysis device were taken into new 96-well plates (Sample Collection Plates). An equal volume of opposite blank matrix (buffer or matrix) in each sample was added to reach a final volume of 100 μL, with volume ratio of matrix: Dialysis Buffer of 1:1 (v:v) in each well. All samples were further processed by protein precipitation before LC-MS/MS analysis.
Method 2. Aliquots (200 μL) of positive controls and test compounds at 5 μM (triplicates) were separately added to the plasma chamber and […] of phosphate buffered saline (pH 7.4) was added to the buffer chamber of the inserts. After sealing the rapid equilibrium dialysis (RED) device with an adhesive film, dialysis was performed in an incubator at 37° C. with shaking at 100 RPM for 4 hours. Aliquots (50 μL) of warfarin and test compounds were added to four 0.5 mL micro fuse tubes. Two aliquots were frozen immediately (0-minute sample). The other two aliquots were incubated at 37° C. for 4 hours along with the RED device. Following dialysis, an aliquot of 50 μL was removed from each well (both plasma and buffer side) and diluted with an equal volume of opposite matrix (dialyzed with the other matrix) to nullify the matrix effect. Similarly, 50 μL of buffer was added to recovery and stability samples. An aliquot of 100 μL was used for LC-MS/MS analysis following protein precipitation with ACN containing internal standard.

[2] = Method 2: 3 times diluted homogenate, 37° C.
Description: Method 1. Pooled frozen rat brain homogenate was thawed in a water bath at 37° C. prior to the experiment. Using an Apricot automation workstation, 98 μL/well of blank brain homogenate or 100 mM PBS were added to all 96-well reaction plates (Blank, T0, T10, T30, T60, and T120). […] All reaction plates containing mixtures of compound and brain homogenate were incubated at 37° C. in a water bath for up to 120 minutes. At the end of incubation, 500 uL of stop solution (200 ng/mL tolbutamide and 200 ng/mL labetalol in ACN) was added to precipitate protein and mixed thoroughly for 20 minutes at 4° C. After centrifugation at 4,000 rpm and 4° C. for 20 minutes, an Apricot automation workstation was used to transfer 150 μL of supernatant from each reaction plate to its corresponding bioanaylsis plate, which was shaken for 10 minutes prior to LC-MS/MS analysis.
Method 2. Rat brain tissue homogenate samples were prepared by diluting one volume of whole rat brain tissue with two volumes of dialysis buffer (phosphate buffered saline pH 7.4-0.1 M sodium phosphate and 0.15 M sodium chloride) to yield 3 times diluted homogenate. Test compounds were spiked into 400 μL aliquots (n=3) of rat brain homogenate and the resulting mixtures were incubated at 37° C. […] An aliquot (100 μL) of each sample was transferred to a 96-well deep plate and analyzed by LC-MS/MS.

Rat plasma stability = type: in vitro ADME; conditions: Method 2: 5 μM, 37° C.
Description: The results were used to confirm that the plasma protein binding results were not confounded by poor plasma stability.
Method 1. […] Plasma was centrifuged at 4,000 rpm for 5 min and any clots were remove.
Method 2. […]

in vivo [3] = conditions: metabolite after 10 mg/kg SC of parent (sarpogrelate or Compound 14a)
Description: The pharmacokinetics of peripheral 5-HT2A antagonists were studied in the plasma (Tables 11 and 12) and brains (Table 13 and 14) of rats after subcutaneous (SC) dosing. The results were used to interpret the in vivo pharmacological results.
Animals. Male Sprague Dawley rats, aged 8-12 weeks. were used in these studies. Four rats were housed in each cage. […] Temperature and humidity were recorded by an auto-controlled data logger system. All animals were provided laboratory rodent diet and were fasted for 4 h pre-dose and 2 h post-dose. Reverse osmosis water treated with ultraviolet light was provided ad libitum. Animals were randomly assigned to treatment groups.
Drugs and Drug Administration. Test compounds were prepared as described above or commercially obtained. They were administered subcutaneously (SC) at a dose of 1 or 10 mg/kg (as indicated, calculated based on the free base) and at a volume of 5 mL/kg body weight.
Sample Collection and Bioanalysis. […] SC. […] For both studies, immediately after blood collection, plasma was harvested by centrifugation at 4,000 rpm for 10 min at 4° C. and samples were stored at −70±10° C. until bioanalysis. Following blood collection, animals were immediately sacrificed, the abdominal vena-cava was cut open, and the whole body was perfused from the heart using 10 mL of normal saline, and brain samples were collected from all animals. After isolation, brain samples were rinsed three times in ice-cold normal saline (for 5-10 seconds/rinse using ˜5-10 mL normal saline in disposable petri dish for each rinse) and dried on blotting paper. Brain samples were homogenized using ice-cold phosphate-buffered saline (pH 7.4). Total homogenate volume was three times the tissue weight. All homogenates were stored at −70±10° C. until bioanalysis. For bioanalysis, 25 μL aliquots of plasma/brain study samples or spiked plasma/brain calibration standards were added to individual pre-labeled micro-centrifuge tubes followed by 100 μL of an internal standard solution (glipizide, 500 ng/ml in acetonitrile) except for blanks, where 100 μL of acetonitrile was added. Samples were vortexed for 5 minutes and then centrifuged for 10 minutes at 4,000 rpm at 4° C. Following centrifugation, 100 μL of each clear supernatant was transferred to a 96-well plate and analyzed with a fit-for-purpose LC-MS/MS method, with authentic samples of each analyte used for calibration and identification.

in vitro [4] = test: in vitro; parameters: fraction unbound at 4 h: dose or concentration left out as unconfirmed; conditions: rat, brain homogenate
Description: Various putative peripheral 5-HT2A receptor antagonists were tested for binding to rat brain homogenate via equilibrium dialysis, with the results summarized in Table 7.
Method 1. Rat brain homogenate was thawed in a water bath at room temperature and then incubated at 37° C. for 10 min before use. Aliquots of 50 μL of loading matrix containing test compound (2 μM final incubation concentration) or control compound in triplicate were transferred to a Sample Collection Plate. The samples were matched with opposite blank buffer to obtain a final volume of 100 μL with a volume ratio of matrix: Dialysis Buffer of 1:1 (v:v) in each well. The stop solution (200 ng/mL tolbutamide and 200 ng/ml labetalol in ACN) was immediately added to these T0 samples of test compound and control compound. The plate was sealed and shaken at 800 rpm for 10 min. T0 samples were stored at 2-8° C. pending further processing along with other post-dialysis samples. An aliquot of 100 μL of the loading matrix containing test compound or control compound was transferred to the donor side of each dialysis well in triplicate and 100 μL of the Dialysis Buffer was loaded to the receiver side of the well. Then the plate was rotated at approximately 100 rpm in a humidified incubator with 5% CO2 at 37±1° C. for 4 hours. At the end of the dialysis. aliquots of 50 μL from the buffer side and matrix side of the dialysis device were taken into new 96-well plates (Sample Collection Plates). An equal volume of opposite blank matrix (buffer or matrix) in each sample was added to reach a final volume of 100 μL, with a volume ratio of matrix: Dialysis Buffer of 1:1 (v:v) in each well. All samples were further processed by protein precipitation before LC-MS/MS analysis.
Method 2. Aliquots (200 μL) of test compounds and positive controls at […] in rat brain homogenate (triplicates) were added to the rapid equilibrium dialysis (RED) chamber of dialysis inserts. A 350 μL aliquot of dialysis buffer was added to the buffer chamber of the inserts. After sealing the RED device with an adhesive film, dialysis was conducted at 37° C. with shaking at 100 RPM for 4 hours. Following dialysis, an aliquot of 50 μL was removed from each well (brain homogenate and buffer) and diluted with an equal volume of opposite matrix to nullify the matrix effect. Similarly, buffer was added to recovery and stability samples. An aliquot of 100 μL was used for LC-MS/MS analysis following protein precipitation with ACN containing internal standard.

in vivo [5] = type: in vivo, rat
Description: The ratio of free brain concentration to free plasma concentration was calculated at 0.167 h and 0.5 h post administration for each compound using the data presented in the above examples and the following formula.
A smaller value for the free brain: free plasma ratio indicates greater peripheral restriction and therefore, better suitability for the methods of the present disclosure.

[6] = HEK293 stable cell line, 2 nM [3H]mesulergine, 1 h, 25° C., read-out: 5-HT2C Ki (nM) ([3H]mesulergine)
[7] = HEK293 stable cell line, 1 nM [3H]ketanserin, 1 h, 25° C., read-out: 5-HT2A Ki (nM) ([3H]ketanserin)
[8] = 10 mg/kg PK data, quantified as metabolite in PK studies of sarpogrelate and Compound 14a

T1 sequence (P28223 whole entry): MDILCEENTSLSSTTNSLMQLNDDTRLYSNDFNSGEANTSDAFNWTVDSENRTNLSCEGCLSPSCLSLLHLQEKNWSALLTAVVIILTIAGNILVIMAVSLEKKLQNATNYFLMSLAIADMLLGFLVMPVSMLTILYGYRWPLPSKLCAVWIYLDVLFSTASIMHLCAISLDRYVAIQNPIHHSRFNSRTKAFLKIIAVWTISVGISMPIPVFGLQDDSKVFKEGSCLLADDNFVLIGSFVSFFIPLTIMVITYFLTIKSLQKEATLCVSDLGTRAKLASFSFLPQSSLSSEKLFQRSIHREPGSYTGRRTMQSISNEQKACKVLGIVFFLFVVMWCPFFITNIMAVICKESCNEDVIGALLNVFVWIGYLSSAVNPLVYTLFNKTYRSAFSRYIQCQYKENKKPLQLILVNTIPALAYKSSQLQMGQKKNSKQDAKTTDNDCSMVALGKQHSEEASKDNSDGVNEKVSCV

Structure (SMILES): CCN(C)CCc1c[nH]c2cccc(O)c12 [Compound 4-HO-MET, 4-hydroxy-N-methyl-N-ethyltryptamine]
- Ki (5-HT2A receptor): 106 nM

Structure (SMILES): CCN(C)CCc1c[nH]c2ccc(F)cc12 [Compound 5-F-MET, 5-fluoro-N-methyl-N-ethyltryptamine]
- Ki (5-HT2A receptor): 140 nM
- Ki (5-HT2C receptor; [6]): 59 nM

Structure (SMILES): CC(C)COc1ccc(CNC(=O)N(Cc2ccc(F)cc2)C2CCNCC2)cc1.Cl [Compound 7, 1-(4-fluorobenzyl)-3-(4-isobutoxybenzyl)-1-(piperidin-4-yl)urea hydrochloride]
- fraction unbound at 4 h, 5 μM (in vitro [1]; rat, plasma, pH 7.4): 0.038
- % Remaining (120 minutes), rat brain homogenate [2]: 69%
- % Remaining (120 minutes), rat plasma (Rat plasma stability): 96%
- Mean brain concentration 0.167 h (ng/g), analyzed as metabolite (in vivo [3]; 0.167 h): BLQ
- Mean brain concentration 0.5 h (ng/g), analyzed as metabolite (in vivo [3]; 0.5 h): BLQ
- fraction unbound at 4 h (in vitro [4]): 0.002

Structure (SMILES): COc1cc(CC(C)N)c(OC)cc1I (stereo not drawn) [DOI, 4-iodo-2,5-dimethoxyamphetamine]
- Ki (5-HT2C receptor): 70 nM

Structure (SMILES): CCCc1cc(OC)c(CC(C)N)cc1OC (stereo not drawn) [DOPR, 2,5-dimethoxy-4-propylamphetamine]
- Ki (5-HT2A receptor; [7]): 17.6 nM
- Ki (5-HT2C receptor; [6]): 16.6 nM

Structure (SMILES): COc1cc(CCN)cc(OC)c1OC [mescaline]
- Ki (5-HT2A receptor; [7]): 17400 nM
- Ki (5-HT2C receptor; [6]): > 1880 nM

Structure (SMILES): COc1cccc(CCc2ccccc2OCC(O)CN(C)C)c1 (stereo not drawn) [sarpogrelate M1]
- Free Brain:Free Plasma (0.167 h), metabolite (in vivo [5]; [8]): 0.52
- Free Brain:Free Plasma (0.5 h), metabolite (in vivo [5]; [8]): 1.31
- Peripheral restriction / brain penetration (in vivo [5]; from free brain:free plasma ratios): substantial brain penetration
- Mean % bound (rat plasma protein binding) (in vitro [1]; Method 2: RED, 5 μM, 4 hours, 37° C.): 97.2%
- % Remaining (120 minutes), rat brain homogenate [2]: 84%
- % Remaining (120 minutes), rat plasma (Rat plasma stability): 94%
- Mean brain concentration 0.167 h (ng/g), analyzed as metabolite (in vivo [3]; 0.167 h): 32.7 ng/g
- Mean brain concentration 0.5 h (ng/g), analyzed as metabolite (in vivo [3]; 0.5 h): 97.4 ng/g
- Mean plasma concentration 0.167 h (ng/mL), analyzed as metabolite (in vivo [3]; plasma, 0.167 h): 54.1 ng/mL
- Mean plasma concentration 0.5 h (ng/mL), analyzed as metabolite (in vivo [3]; plasma, 0.5 h): 63.6 ng/mL
